Data as given in US7229825B2, “Double-transfected cell line useful for the identification of transport inhibitors” (Deutches Krebsforschungszentrum Stiftung des Offentlichen …, priority 2001, dated 2007).

How the values were obtained:
[1] = molecular target: T1, human OATP8 (MDCK-OATP8 cells) (Homo sapiens, UniProt Q9NPD5); assay: [3H]BSP accumulation and efflux in MDCK-OATP8 cells on Transwell membrane inserts; format: cell-based; set-up: expressed in transfected cells
T1 sequence (Q9NPD5 1-702): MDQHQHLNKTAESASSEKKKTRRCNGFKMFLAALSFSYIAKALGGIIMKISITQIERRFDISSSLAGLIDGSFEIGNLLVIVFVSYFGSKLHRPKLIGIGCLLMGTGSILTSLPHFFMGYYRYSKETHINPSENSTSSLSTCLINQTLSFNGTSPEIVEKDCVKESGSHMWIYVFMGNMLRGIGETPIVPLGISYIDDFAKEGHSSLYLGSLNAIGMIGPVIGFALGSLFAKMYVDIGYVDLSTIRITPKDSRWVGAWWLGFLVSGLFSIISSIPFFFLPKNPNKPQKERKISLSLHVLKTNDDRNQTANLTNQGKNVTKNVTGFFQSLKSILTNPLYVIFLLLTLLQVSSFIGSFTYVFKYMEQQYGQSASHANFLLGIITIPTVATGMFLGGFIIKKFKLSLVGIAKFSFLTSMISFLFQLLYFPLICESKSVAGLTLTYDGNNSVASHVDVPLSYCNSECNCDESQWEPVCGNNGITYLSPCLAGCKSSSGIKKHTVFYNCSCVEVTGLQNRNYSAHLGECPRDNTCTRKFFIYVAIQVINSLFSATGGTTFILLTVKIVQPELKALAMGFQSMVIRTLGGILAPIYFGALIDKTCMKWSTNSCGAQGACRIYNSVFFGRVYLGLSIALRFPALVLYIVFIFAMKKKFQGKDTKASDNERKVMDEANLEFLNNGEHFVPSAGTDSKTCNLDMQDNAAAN

MDCK-MRP2/OATP8 cells = assay: Radio-HPLC analysis of [3H]BSP after transport by MDCK-MRP2/OATP8 cells; format: in vitro ADME; conditions: 1 μM [3H]BSP basolateral, 30 min, acivicin 5 mM
Method: HPLC Analysis of [^3H]BSP. MDCK-MRP2/OATP8 cells grown on Transwell membrane inserts were incubated with 1 μM [^3H]BSP in the basolateral compartment for 30 min at 37° C. after a pre-incubation with 5 mM acivicin, an inhibitor of g-glutamyltransferase (Allen et al. 1980), in both compartments for 30 min at 37° C. The radioactivity in the apical compartment and in the cell lysate was analyzed by HPLC. Reversed-phase HPLC analyses on a C18 Hypersil column ([…] particles; Shandon, Runcorn, UK) were performed as described (Cui et al. 2001) using a linear gradient elution from 100% buffer A (45% methanol/55% water containing […] tetrabutylammonium hydroxide at pH 6.0) to 100% buffer B (90% methanol/10% water containing 2 mM tetrabutylammonium hydroxide at pH 6.0) at a flow rate of 1 ml/min. [^3H]BSP-SG was synthesized for the HPLC analyses by incubating 1 mM GSH, 0.4 mM [^3H]BSP (1 μCi), and 5 mM acivicin with 350 μl mouse liver cytosol in a final volume of 500 μl for 1 h at 37° C. After deproteinization with 3 volume of methanol 200 μl supernatant was analyzed by HPLC as described above.

human MRP2 = human MRP2 (Homo sapiens, UniProt Q92887); assay: ATP-dependent transport of [3H]BSP into inside-out membrane vesicles from HEK-MRP2 cells; format: biochemical
Method: Vesicle Transport Studies. Transport of [^3H]BSP into membrane vesicles was measured by the rapid filtration method (Keppler et al. 1998). Briefly, membrane vesicles (30 μg protein) were incubated in the presence of 4 mM ATP, 10 mM creatine phosphate, 100 μg/ml creatine kinase, and [^3H]BSP in an incubation buffer (250 mM sucrose, 10 mM Tris/HCl, pH 7.4) in a final volume of 55 μl at 37° C. Aliquots (15 μl) were taken at the indicated time points, diluted in 1 ml ice-cold incubation buffer, and immediately filtered through presoaked nitrocellulose membrane (0.2 μm pore size, Schleicher & Schüll, Dassel, Germany). Filters were rinsed twice with 5 ml of incubation buffer, dissolved in liquid scintillation fluid, and counted for radioactivity. In control experiments, ATP was replaced by an equal concentration of 5′-AMP. ATP-dependent transport was calculated by subtracting values obtained in the presence of 5′-AMP from those obtained in the presence of ATP.

[2] = system: OATP2 and MRP2 (MDCK-OATP2/MRP2 cells); assay: Transcellular transport of BSP by MDCK-OATP2/MRP2 cells; format: cell-based, human; conditions: 1 μM [3H]BSP basolateral, 30 min, 37° C.; MDCK-OATP2/MRP2 vs MDCK-Co and MDCK-OATP2
Text: FIG. 13: Transcellular transport of BSP by MDCK-OATP2/MRP2 cells.
Proteins were separated by SDS-PAGE (7.5% gels).

[3] = system: human OATP8 and MRP2 (MDCK-MRP2/OATP8 cells)
Method: For transport assays MDCKII cells were grown on Transwell membrane inserts (24 mm diameter, 0.4 μm pore size, Corning Costar) at confluency for 3 days and induced with 10 mM sodium butyrate for 24 h. […] After the time periods indicated, the radioactivity in the opposite compartments was measured. The intracellular accumulation of the radioactivity was determined by lysing the cells with 2 ml 0.2% SDS in water and measuring the radioactivity in cell lysates.
To study the transcellular transport of Fluo-3, cells were incubated with 2 μM Fluo-3 in the basolateral compartments at 37° C. for 30 min.
To study the transcellular transport of rifampicin, cells were incubated with 50 μM rifampicin in the basolateral compartments at 37° C. for 30 min. To determine the concentration of rifampicin in the apical compartments its absorption at 475 nm was measured with a spectrophotometer (Ultrospec III, Amersham-Pharmacia, Freiburg, Germany). A calibration curve for the calculation of the concentrations of rifampicin was determined in the concentration range between 1 and 50 μM.

Sequence of human MRP2 (Q92887 whole entry): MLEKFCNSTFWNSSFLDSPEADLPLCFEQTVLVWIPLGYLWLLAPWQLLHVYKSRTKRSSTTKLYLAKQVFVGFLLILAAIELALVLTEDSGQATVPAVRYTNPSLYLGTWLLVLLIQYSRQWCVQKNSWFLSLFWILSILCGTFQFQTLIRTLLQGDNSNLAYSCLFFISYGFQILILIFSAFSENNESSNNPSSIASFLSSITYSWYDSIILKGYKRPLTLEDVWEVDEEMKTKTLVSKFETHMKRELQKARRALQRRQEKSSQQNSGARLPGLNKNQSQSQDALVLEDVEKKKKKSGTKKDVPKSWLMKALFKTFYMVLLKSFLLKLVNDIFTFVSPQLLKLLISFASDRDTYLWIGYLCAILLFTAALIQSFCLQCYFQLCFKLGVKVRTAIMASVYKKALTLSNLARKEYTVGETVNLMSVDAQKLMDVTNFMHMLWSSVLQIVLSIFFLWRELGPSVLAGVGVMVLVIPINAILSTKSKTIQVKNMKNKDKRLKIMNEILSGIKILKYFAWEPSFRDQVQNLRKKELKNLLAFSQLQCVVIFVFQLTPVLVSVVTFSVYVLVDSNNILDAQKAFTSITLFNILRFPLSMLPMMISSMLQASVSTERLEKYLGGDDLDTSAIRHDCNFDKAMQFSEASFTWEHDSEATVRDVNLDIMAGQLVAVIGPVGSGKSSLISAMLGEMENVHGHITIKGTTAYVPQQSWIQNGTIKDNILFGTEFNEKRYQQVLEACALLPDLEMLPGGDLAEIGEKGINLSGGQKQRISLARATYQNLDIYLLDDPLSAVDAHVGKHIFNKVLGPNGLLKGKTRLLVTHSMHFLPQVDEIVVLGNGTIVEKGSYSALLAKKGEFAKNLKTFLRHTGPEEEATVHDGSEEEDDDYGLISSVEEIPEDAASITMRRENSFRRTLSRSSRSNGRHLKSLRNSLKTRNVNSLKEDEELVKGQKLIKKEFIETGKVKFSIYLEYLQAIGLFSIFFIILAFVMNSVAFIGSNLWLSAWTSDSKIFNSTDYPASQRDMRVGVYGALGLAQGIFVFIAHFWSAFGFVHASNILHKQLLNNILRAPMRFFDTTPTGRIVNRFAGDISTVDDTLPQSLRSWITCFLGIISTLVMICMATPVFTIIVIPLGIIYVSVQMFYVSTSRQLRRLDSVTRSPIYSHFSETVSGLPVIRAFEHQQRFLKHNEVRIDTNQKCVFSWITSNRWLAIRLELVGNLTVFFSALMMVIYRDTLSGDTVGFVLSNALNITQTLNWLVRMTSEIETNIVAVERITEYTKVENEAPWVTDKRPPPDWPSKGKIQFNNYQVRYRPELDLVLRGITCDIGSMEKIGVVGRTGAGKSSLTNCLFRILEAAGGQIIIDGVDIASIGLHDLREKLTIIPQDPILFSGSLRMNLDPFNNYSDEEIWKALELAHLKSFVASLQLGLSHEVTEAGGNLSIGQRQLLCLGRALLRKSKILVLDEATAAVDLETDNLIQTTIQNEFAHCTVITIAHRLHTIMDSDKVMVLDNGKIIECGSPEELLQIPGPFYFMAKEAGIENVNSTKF

With O=C1OC(c2ccc(O)c(S(=O)(=O)O)c2)(c2ccc(O)c(S(=O)(=O)O)c2)c2c(Br)c(Br)c(Br)c(Br)c21 [BSP, sulfobromophthalein] the “intracellular accumulation of [3H]BSP” value ([1]; 1 μM basolateral, MDCK-OATP8 or MDCK-MRP2/OATP8 vs MDCK-Co and MDCK-MRP2 cells) was “significantly higher”, the “efflux of [3H]BSP, route of release” value ([1]; MDCK-OATP8 cells loaded with 1 μM for 30 min, then 30 min efflux) was “mainly across the basolateral membrane” and the “radioactivity in the apical compartment and in the cells with the retention time of unconjugated [3H]BSP” value (MDCK-MRP2/OATP8 cells) was > 98%. For the same molecule, the “transport of [3H]BSP into membrane vesicles from HEK-MRP2 cells” value (human MRP2; 1 μM, ATP vs 5'-AMP) was “transported ATP-dependently”, the “accumulation of [3H]BSP in membrane vesicles” value (human MRP2; HEK-MRP2 vs control-transfected HEK-Co vesicles) was “significantly higher” and the “rate of transcellular transport of BSP” value [2] was “significantly higher”. The “intracellular [3H]BSP level remaining after 30 min efflux” value [3] was “significantly lower”, the “transcellular transport (basolateral to apical)” value [3] was “marked transcellular transport” and the “rate of transfer from the basolateral to the apical compartment, double-transfected versus single-transfected cells” value ([3]; human, pH 7.3) was “at least 6 times”.
